Test results: patent US20090317395A1, “Antimicrobial Peptide Derived from Galanin Message Associated Peptide (GMAP)” (priority 2006, published 2009)
Values joined by “and” are separate entries in the source; they are usually repeats but may differ in a detail not shown here. Equal entries are not always repeated. “Also recorded” adds a separate entry of the source.

Key:
Candida albicans [1] = experiment: Microscopic examination of treated Candida albicans cultures for hyphae (yeast-to-hypha switch); type: cell-based
Experimental: Cultures of Candida albicans were treated for 24 and 48 hrs either with the common antifungal substance fluconazol, GMAP 16-42 or Galanin.

Candida albicans [2] = experiment: Antifungal (growth inhibition) activity against C. albicans; type: cell-based; details: for inhibitory growth effect / antimicrobial activity against C. albicans: FIG. 3 (C), ** p<0.05
Description: The inventors analyzed the antimicrobial activity of peptide fragments corresponding to ppGAL against gram-negative E. coli gram-positive Staphylococcus aureus and Corynebacterium sp. and the yeast Candida albicans and Aspergillus fumigatus. Positive controls were the antimicrobial peptides Indolicidin, NPY 13-36 and Magainin I, as a negative control served the Adrenocorticotropic hormone (ACTH) 18-39 (Cutuli M, Cristiani S, Lipton J M and Catania A: Antimicrobial effects of alpha-MSH peptides. J Leukoc Biol 67:233-239, 2000; Selsted M E, Novotny M J, Morris W L, Tang Y Q, Smith W and Cullor J S: Indolicidin, a novel bactericidal tridecapeptide amide from neutrophils. J Biol Chem. 267:4292-4295., 1992; Shimizu M, Shigeri Y, Tatsu Y, Yoshikawa S and Yumoto N: Enhancement of antimicrobial activity of neuropeptide Y by N-terminal truncation. Antimicrob Agents Chemother 42:2745-2746, 1998; Zasloff M: Magainins, a class of antimicrobial peptides from Xenopus skin: isolation, characterization of two active forms, and partial cDNA sequence of a precursor. Proc Natl Acad Sci USA 84:5449-5453, 1987).
None of the peptide fragments tested of the ppGal gene did reveal antibacterial activity. […] The antifungal activity can be found already at a concentration of […] (4 μM).

[3] = interpretation of microscopy findings

## OC(Cn1cncn1)(Cn1cncn1)c1ccc(F)cc1F [fluconazol, reference compound]
Candida albicans [1]; treated for 24 and 48 hrs
  microscopic examination of cultures: hyphae / yeast forms: hyphae were only visible in the untreated and galanin treated wells
Candida albicans [1]; treated for 48 hrs (FIG. 4)
  microscopic examination of cultures: hyphae / yeast forms: hyphae were only visible in the untreated and galanin treated wells

## ELRPEDDMKPGSFDRSIPENNIMRTIIEFLSFLHLKEAGAL (listed as Homo sapiens) [GMAP 1-41]
Candida albicans [2]
  inhibitory growth effect / antimicrobial activity against C. albicans: active compound

## GMAP: galanin message associated peptide; in b114 refers to the GMAP fragment treated wells (ELRPEDDMKPGSFDRSIPENNIMRTIIEFLSFLHLKEAGAL; listed as Homo sapiens)
Candida albicans [1]; [3]
  effect on proliferation of Candida per se: not to significantly affect the proliferation of Candida per se
  effect on switch to pathogenic hyphal forms: inhibits the switch to pathogenic hyphal forms; also recorded: inhibits the pathogenic phenotypic switch of C. albicans

## SIPENNIMRTIIEFLSFLHLKEAGAL (listed as Homo sapiens) [GMAP 16-41]
Candida albicans [2]; C. albicans
  concentration at which antifungal activity can be found: 12 pg/ml and 4 μM
Candida albicans [2]
  inhibitory growth effect / antimicrobial activity against C. albicans: antimicrobial core sequence
